Converted amounts (≈) assume the structure as drawn.
Key:
Type in all cases: functional
Escherichia coli [1] = assay: Antibacterial activity against Escherichia coli at 100 ug/disk after 24 hr by paper disk diffusion method; conditions: read-out: IZ
Bacillus subtilis [2] = assay: Antibacterial activity against Bacillus subtilis after 24 hr by agar streak dilution method
Proteus vulgaris [3] = assay: Antibacterial activity against Proteus vulgaris at 100 ug/disk after 24 hr by paper disk diffusion method; conditions: read-out: IZ
Aspergillus fumigatus [4] = assay: Antifungal activity against Aspergillus fumigatus after 48 hr by agar streak dilution method
Salmonella typhi [5] = assay: Antibacterial activity against Salmonella enterica subsp. enterica serovar Typhi after 24 hr by agar streak dilution method
Shigella flexneri [6] = assay: Antibacterial activity against Shigella flexneri after 24 hr by agar streak dilution method
Pseudomonas aeruginosa [7] = assay: Antibacterial activity against Pseudomonas aeruginosa after 24 hr by agar streak dilution method
Shigella flexneri [8] = assay: Antibacterial activity against Shigella flexneri at 100 ug/disc after 24 hr by paper disk diffusion method; conditions: read-out: IZ
Salmonella typhi [9] = assay: Antibacterial activity against Salmonella enterica subsp. enterica serovar Typhi at 100 ug/disk after 24 hr by paper disk diffusion method; conditions: read-out: IZ
Aspergillus clavatus [10] = assay: Antifungal activity against Aspergillus clavatus after 48 hr by agar streak dilution method
Aspergillus niger [11] = assay: Antifungal activity against Aspergillus niger after 48 hr by agar streak dilution method
Candida albicans [12] = assay: Antifungal activity against Candida albicans at 100 ug/disk after 48 hr by paper disk diffusion method; conditions: read-out: IZ
Candida albicans [13] = assay: Antifungal activity against Candida albicans after 48 hr by agar streak dilution method
Bacillus subtilis [14] = assay: Antibacterial activity against Bacillus subtilis at 100 ug/disk after 24 hr by paper disk diffusion method; conditions: read-out: IZ
Proteus vulgaris [15] = assay: Antibacterial activity against Proteus vulgaris after 24 hr by agar streak dilution method
Klebsiella pneumoniae [16] = assay: Antibacterial activity against Klebsiella pneumoniae after 24 hr by agar streak dilution method
Aspergillus niger [17] = assay: Antifungal activity against Aspergillus niger at 100 ug/disk after 48 hr by paper disk diffusion method; conditions: read-out: IZ
Pseudomonas aeruginosa [18] = assay: Antibacterial activity against Pseudomonas aeruginosa at 100 ug/disk after 24 hr by paper disk diffusion method; conditions: read-out: IZ
Aspergillus fumigatus [19] = assay: Antifungal activity against Aspergillus fumigatus at 100 ug/disc after 48 hr by paper disk diffusion method; conditions: read-out: IZ
Klebsiella pneumoniae [20] = assay: Antibacterial activity against Klebsiella pneumoniae at 100 ug/disk after 24 hr by paper disk diffusion method; conditions: read-out: IZ
Staphylococcus aureus [21] = assay: Antibacterial activity against Staphylococcus aureus after 24 hr by agar streak dilution method
Escherichia coli [22] = assay: Antibacterial activity against Escherichia coli after 24 hr by agar streak dilution method
Aspergillus clavatus [23] = assay: Antifungal activity against Aspergillus clavatus at 100 ug/disc after 48 hr by paper disk diffusion method; conditions: read-out: IZ
Staphylococcus aureus [24] = assay: Antibacterial activity against Staphylococcus aureus at 100 ug/disc after 24 hr by paper disk diffusion method; conditions: read-out: IZ

Compound | zone of inhibition at 100 µg/disc (Escherichia coli [1]) [mm] | MIC (Bacillus subtilis [2]) [µg/mL] | zone of inhibition at 100 µg/disc (Proteus vulgaris [3]) [mm] | MIC (Aspergillus fumigatus [4]) [µg/mL] | MIC (Salmonella typhi [5]) [µg/mL] | MIC (Shigella flexneri [6]) [µg/mL] | MIC (Pseudomonas aeruginosa [7]) [µg/mL] | zone of inhibition at 100 µg/disc (Shigella flexneri [8]) [mm] | zone of inhibition at 100 µg/disc (Salmonella typhi [9]) [mm] | MIC (Aspergillus clavatus [10]) [µg/mL] | MIC (Aspergillus niger [11]) [µg/mL] | zone of inhibition at 100 µg/disc (Candida albicans [12]) [mm] | MIC (Candida albicans [13]) [µg/mL] | zone of inhibition at 100 µg/disc (Bacillus subtilis [14]) [mm] | MIC (Proteus vulgaris [15]) [µg/mL] | MIC (Klebsiella pneumoniae [16]) [µg/mL] | zone of inhibition at 100 µg/disc (Aspergillus niger [17]) [mm] | zone of inhibition at 100 µg/disc (Pseudomonas aeruginosa [18]) [mm] | zone of inhibition at 100 µg/disc (Aspergillus fumigatus [19]) [mm] | zone of inhibition at 100 µg/disc (Klebsiella pneumoniae [20]) [mm] | other results
Cc1cc(=O)oc2cc(Oc3nc(Nc4ccc(N5C(=O)C(CN6CCN(c7ccccn7)CC6)SC5c5ccc(Cl)cc5)cc4)nc(N(C)C)n3)ccc12 (stereo not drawn) | 23 | 50 (≈ 64.4 µM) | 25 | 12.5 (≈ 16.1 µM) | 12.5 (≈ 16.1 µM) | 6.25 (≈ 8.05 µM) | 50 (≈ 64.4 µM) | 27 | 24 | 12.5 (≈ 16.1 µM) | 50 (≈ 64.4 µM) | 26 | 6.25 (≈ 8.05 µM) | 18 | 12.5 (≈ 16.1 µM) | 25 (≈ 32.2 µM) | 18 | 18 | 21 | 22 | MIC (Staphylococcus aureus [21]): 25 µg/mL (≈ 32.2 µM); MIC (Escherichia coli [22]): 50 µg/mL (≈ 64.4 µM); zone of inhibition at 100 µg/disc (Aspergillus clavatus [23]): 25 mm; zone of inhibition at 100 µg/disc (Staphylococcus aureus [24]): 21 mm
Cc1cc(=O)oc2cc(Oc3nc(Nc4ccc(N5C(=O)C(CN6CCN(c7ccccn7)CC6)SC5c5ccccc5)cc4)nc(N(C)C)n3)ccc12 (stereo not drawn) | 16 | 100 (≈ 135 µM) | 13 | 100 (≈ 135 µM) | 100 (≈ 135 µM) | 100 (≈ 135 µM) | 50 (≈ 67.4 µM) | 15 | 14 | 100 (≈ 135 µM) | 100 (≈ 135 µM) | 12 | 100 (≈ 135 µM) | 16 | 100 (≈ 135 µM) | 100 (≈ 135 µM) | 14 | 19 | < 10 | 13 | MIC (Staphylococcus aureus [21]): 100 µg/mL (≈ 135 µM); MIC (Escherichia coli [22]): 100 µg/mL (≈ 135 µM); zone of inhibition at 100 µg/disc (Aspergillus clavatus [23]): 16 mm; zone of inhibition at 100 µg/disc (Staphylococcus aureus [24]): 14 mm
Cc1cc(=O)oc2cc(Oc3nc(Nc4ccc(N5C(=O)CSC5c5ccc(O)cc5)cc4)nc(N(C)C)n3)ccc12 (stereo not drawn) | 24 | 12.5 (≈ 21.5 µM) | 21 | 12.5 (≈ 21.5 µM) | 12.5 (≈ 21.5 µM) | 50 (≈ 85.8 µM) | 25 (≈ 42.9 µM) | 19 | 23 | 50 (≈ 85.8 µM) | 12.5 (≈ 21.5 µM) | 19 | 50 (≈ 85.8 µM) | 20 | 12.5 (≈ 21.5 µM) | 100 (≈ 172 µM) | 24 | 21 | 21 | 15 | MIC (Staphylococcus aureus [21]): 12.5 µg/mL (≈ 21.5 µM); MIC (Escherichia coli [22]): 12.5 µg/mL (≈ 21.5 µM); zone of inhibition at 100 µg/disc (Aspergillus clavatus [23]): 18 mm; zone of inhibition at 100 µg/disc (Staphylococcus aureus [24]): 22 mm
Cc1cc(=O)oc2cc(Oc3nc(Nc4ccc(N5C(=O)CSC5c5ccc(Cl)cc5Cl)cc4)nc(N(C)C)n3)ccc12 (stereo not drawn) | 17 | 50 (≈ 78.7 µM) | 18 | 50 (≈ 78.7 µM) | 100 (≈ 157 µM) | 50 (≈ 78.7 µM) | 50 (≈ 78.7 µM) | 17 | 16 | 50 (≈ 78.7 µM) | 100 (≈ 157 µM) | 16 | 100 (≈ 157 µM) | 19 | 50 (≈ 78.7 µM) | 50 (≈ 78.7 µM) | 14 | 16 | 17 | 19 | MIC (Staphylococcus aureus [21]): 50 µg/mL (≈ 78.7 µM); MIC (Escherichia coli [22]): 50 µg/mL (≈ 78.7 µM); zone of inhibition at 100 µg/disc (Aspergillus clavatus [23]): 19 mm; zone of inhibition at 100 µg/disc (Staphylococcus aureus [24]): 17 mm
Cc1cc(=O)oc2cc(Oc3nc(Nc4ccc(/N=C/c5ccc(Cl)cc5)cc4)nc(N(C)C)n3)ccc12 | 16 | 100 (≈ 190 µM) | 17 | 50 (≈ 94.9 µM) | 25 (≈ 47.4 µM) | 25 (≈ 47.4 µM) | 100 (≈ 190 µM) | 21 | 19 | 50 (≈ 94.9 µM) | 100 (≈ 190 µM) | 18 | 50 (≈ 94.9 µM) | 14 | 50 (≈ 94.9 µM) | 100 (≈ 190 µM) | 12 | 11 | 16 | 15 | MIC (Staphylococcus aureus [21]): 50 µg/mL (≈ 94.9 µM); MIC (Escherichia coli [22]): 100 µg/mL (≈ 190 µM); zone of inhibition at 100 µg/disc (Aspergillus clavatus [23]): 18 mm; zone of inhibition at 100 µg/disc (Staphylococcus aureus [24]): 17 mm
Cc1cc(=O)oc2cc(Oc3nc(Nc4ccc(N5C(=O)C(CN6CCN(c7ccccn7)CC6)SC5c5ccc([N+](=O)[O-])cc5)cc4)nc(N(C)C)n3)ccc12 (stereo not drawn) | 16 | 100 (≈ 127 µM) | 10 | 50 (≈ 63.5 µM) | 50 (≈ 63.5 µM) | 100 (≈ 127 µM) | 100 (≈ 127 µM) | 14 | 18 | 50 (≈ 63.5 µM) | 100 (≈ 127 µM) | 13 | 100 (≈ 127 µM) | 13 | 100 (≈ 127 µM) | 100 (≈ 127 µM) | 15 | 13 | 18 | 15 | MIC (Staphylococcus aureus [21]): 100 µg/mL (≈ 127 µM); MIC (Escherichia coli [22]): 100 µg/mL (≈ 127 µM); zone of inhibition at 100 µg/disc (Aspergillus clavatus [23]): 20 mm; zone of inhibition at 100 µg/disc (Staphylococcus aureus [24]): 16 mm
Cc1cc(=O)oc2cc(Oc3nc(Nc4ccc(N5C(=O)C(CN6CCN(c7ccccn7)CC6)SC5c5ccc(Cl)cc5Cl)cc4)nc(N(C)C)n3)ccc12 (stereo not drawn) | 19 | 12.5 (≈ 15.4 µM) | 21 | 50 (≈ 61.7 µM) | 50 (≈ 61.7 µM) | 25 (≈ 30.8 µM) | 50 (≈ 61.7 µM) | 20 | 18 | 25 (≈ 30.8 µM) | 50 (≈ 61.7 µM) | 20 | 50 (≈ 61.7 µM) | 23 | 12.5 (≈ 15.4 µM) | 25 (≈ 30.8 µM) | 18 | 18 | 19 | 21 | MIC (Staphylococcus aureus [21]): 25 µg/mL (≈ 30.8 µM); MIC (Escherichia coli [22]): 25 µg/mL (≈ 30.8 µM); zone of inhibition at 100 µg/disc (Aspergillus clavatus [23]): 23 mm; zone of inhibition at 100 µg/disc (Staphylococcus aureus [24]): 22 mm
